This is an account of results in US5760087A, “Glycylanilide derivatives, their preparation and their application in therapy” (Pierre Fabre Medicament, priority 1995, dated 1998).

One test relates to plasma cholesterol. The experiment in a line: Hypocholesterolemic activity in rats on hypercholesterolemic diet. Format: in vivo. To be noted: Rattus norvegicus; male rats, oral, 4 days, Altromin C 1061 hypercholesterolemic diet; plasma cholesterol on day 5 after 16 h fast; read-out: ED50 (dose which reduces the plasma cholesterol concentration by half relative to control animals). The procedure:
2) Hypocholesterolemic Activity
Male rats (160-180 g) are subjected for 4 days to an Altromin C 1061 hypercholesterolemic diet, and concomitantly treated orally with the compounds suspended in carboxymethylcellulose at a concentration of 1%.
On day 5, the animals, fasted for 16 hours, are anesthetized with ethyl ether and exsanguinated by drawing blood at the abdominal aorta onto EDTA.
The blood is immediately centrifuged and the plasma stored at 4° C.
Plasma cholesterol is then assayed by the CHOP-PAP method (Boehringer-Mannheim Ref. 237574).
The median effective dose (ED50) corresponds to the dose which reduces the plasma cholesterol concentration by half relative to control animals.

The test system of test [1] is hepatic microsomal lipids (rat liver microsomes). The experiment in a line: Antioxidant activity: chemical peroxidation of rat liver microsomes (T.BARS). Format: biochemical. To be noted: Fe3+/ADP/dihydroxyfumaric acid. From the text: In the presence of Fe^3+ and ADP, dihydroxyfumaric acid undergoes an autoxidation which generates oxygen free radicals. The latter bring about the peroxidation of hepatic microsomal lipids.
(Microsomes from liver hold many membrane-bound enzymes, among them those of drug oxidation.)

In another test the test system is Human LDL. The experiment in a line: Antioxidant activity: oxidation of LDL by CuSO4 (T.BARS). Format: biochemical. The note with it: 4.5 μM CuSO4, 6 hours incubation, T.BARS at 532 nm.
Test [2] has as its target ACAT (acyl-CoA:cholesterol O-acyltransferase enzyme). The experiment in a line: Inhibition of ACAT in vitro (technique of H. Chautan et al.). Format: biochemical. The note with it: read-out: IC50 (50% inhibitory concentration), ACAT inhibition. From the text:
The compounds were studied for their inhibitory effect on ACAT and hypocholesterolemic effect in rats on the one hand and for their antioxidant effect on the other hand.

Each structure is given as a SMILES string.

For the compound `CCCCCCCCCCC(C)(C)C(=O)Nc1c(OC)cc(OC)cc1OC` [CI 976, reference compound], in the test with plasma cholesterol, the ED50 is 7.2 mg/kg. In addition, the IC50 is > 10000 nM in test [1] and 100 µM with Human LDL.

`CCCCCCCCCCCCSC(C)C(=O)NCC(=O)Nc1cc(C)c(O)c(C)c1C` (centres unmarked) [Compound 1, N-(2-n-dodecylthio)propionamido-2',3',5'-trimethyl-4'-hydroxyglycylanilide]: the IC50 in test [2] amounted to 1200 nM; in test [1], 3000 nM; with Human LDL it was 5 µM. For the same compound, the ED50 in the test on plasma cholesterol amounted to 1 mg/kg.

Turning to `CCCCCCCCCCCCC(C)(C)C(=O)NCC(=O)Nc1cc(C)c(O)c(C)c1C` [Compound 2, N-(α,α,-dimethyl)tetradecanamido-2',3',5'-trimethyl-4'-hydroxyglycylanilide], the IC50 in test [2] was determined as 740 nM; in test [1], 500 nM; in the test on Human LDL, 1 µM. Further, in the test with plasma cholesterol, the ED50 amounted to 3 mg/kg.

With `CCCCCCCCCCCCSC(C)(C)C(=O)N(C)CC(=O)Nc1cc(C)c(O)c(C)c1C` [Compound 3, N-methyl-N-(α-n-dodecylthio)isobutyramido-2',3',5'-trimethyl-4'-hydroxyglycylanilide], the results for the IC50 (in test [2]; in test [1]; in the test on Human LDL) were 160 nM, 500 nM and 5 µM, respectively. The ED50 with plasma cholesterol is < 2.5 mg/kg.

For `CCCCCCCCCCCCSC(C)(C)C(=O)NCC(=O)Nc1cc(C)c(O)c(C)c1C` [Compound 5, N-(α-n-dodecylthio)isobutyramido-2',3',5'-trimethyl-4'-hydroxyglycylanilide], the IC50 in test [2] was 620 nM; in test [1] it was 300 nM; in the test on Human LDL, 3 µM. The ED50 with plasma cholesterol was 2.5 mg/kg.

With `CCCCCCCCCCCCSC(C)C(=O)N(C)CC(=O)Nc1cc(C)c(O)c(C)c1C` (stereo not drawn) [Compound 8, N-methyl-N-(α-n-dodecylthio)propionamido-2',3',5'-trimethyl-4'-hydroxyglycylanilide], the IC50 amounted to 280 nM in test [2], 500 nM in test [1] and 3 µM in the test on Human LDL. The ED50 in the test on plasma cholesterol amounted to 4 mg/kg.

In the case of `CCCCCCCN(CCCCCSc1nc(-c2ccccc2)c(-c2ccccc2)[nH]1)C(=O)Nc1ccc(F)cc1F` [DUP 128, reference compound], the ED50 in the test with plasma cholesterol was 1.4 mg/kg. The values for the IC50 (in test [1]; with Human LDL) were > 10000 nM and 30 µM, respectively.
